Structures can show the parent of a compound that is named as a salt.
Tested on: E. coli strain W3110
Assay: Synergy assays: Biolog chemical sensitivity panels with Group IB metal, coefficient of drug interaction (CDI) from relative growth
Type: cell-based
Settings: for CDI (coefficient of drug interaction), gold + biocide: Gold (μM); for CDI (coefficient of drug interaction), copper mixed with biocide: Copper (mM) section
[1] = Silver 0.5 μM, biocide concentration 3 of 4
[2] = Silver 0.5 μM, biocide concentration 4 of 4
[3] = Silver 1.0 μM, biocide concentration 3 of 4
[4] = Silver 1.0 μM, biocide concentration 4 of 4
[5] = Silver 5.0 μM, biocide concentration 3 of 4
[6] = Silver 5.0 μM, biocide concentration 4 of 4
[7] = 1st of 3 copper concentrations (value not shown), 3rd of four biocide concentrations
[8] = 1st of 3 copper concentrations (value not shown), 4th of four biocide concentrations
[9] = 2nd of 3 copper concentrations (value not shown), 3rd of four biocide concentrations
[10] = 2nd of 3 copper concentrations (value not shown), 4th of four biocide concentrations
[11] = 3rd of 3 copper concentrations (value not shown), 3rd of four biocide concentrations
[12] = 3rd of 3 copper concentrations (value not shown), 4th of four biocide concentrations
[13] = Gold section of Table 5, first of three gold concentrations (μM, value not given), biocide concentration 4 of 4
[14] = Gold section of Table 5, second of three gold concentrations (μM, value not given), biocide concentration 4 of 4
[15] = Gold section of Table 5, third of three gold concentrations (μM, value not given), biocide concentration 4 of 4
[16] = Silver 0.5 μM, 4th of four biocide concentrations, E. coli
[17] = Silver 1.0 μM, 4th of four biocide concentrations, E. coli

In the case of NCC(=O)NO [glycine hydroxamate], the “CDI (coefficient of drug interaction)” value (Copper (mM), 1st of 3 copper concentrations (head line not shown), biocide concentration 1 of 4, E. coli) was 1.36, the “CDI (coefficient of drug interaction)” value (Copper (mM), 1st of 3 copper concentrations (head line not shown), biocide concentration 2 of 4, E. coli) was “Tox” and the “CDI (coefficient of drug interaction)” value (Copper (mM), 1st of 3 copper concentrations (head line not shown), biocide concentration 3 of 4, E. coli) was “Tox”. For the same compound, the “CDI (coefficient of drug interaction)” value (Copper (mM), 1st of 3 copper concentrations (head line not shown), biocide concentration 4 of 4, E. coli) was “Tox”, the “CDI (coefficient of drug interaction)” value (Copper (mM), 2nd of 3 copper concentrations (head line not shown), biocide concentration 1 of 4, E. coli) was 1.06 and the “CDI (coefficient of drug interaction)” value (Copper (mM), 2nd of 3 copper concentrations (head line not shown), biocide concentration 2 of 4, E. coli) was 0.47. The “CDI (coefficient of drug interaction)” value (Copper (mM), 2nd of 3 copper concentrations (head line not shown), biocide concentration 3 of 4, E. coli) was “Tox”, the “CDI (coefficient of drug interaction)” value (Copper (mM), 2nd of 3 copper concentrations (head line not shown), biocide concentration 4 of 4, E. coli) was “Tox” and the “CDI (coefficient of drug interaction)” value (Copper (mM), 3rd of 3 copper concentrations (head line not shown), biocide concentration 1 of 4, E. coli) was 1.73. The “CDI (coefficient of drug interaction)” value (Copper (mM), 3rd of 3 copper concentrations (head line not shown), biocide concentration 2 of 4, E. coli) was “Tox”, the “CDI (coefficient of drug interaction)” value (Copper (mM), 3rd of 3 copper concentrations (head line not shown), biocide concentration 3 of 4, E. coli) was “Tox” and the “CDI (coefficient of drug interaction)” value (Copper (mM), 3rd of 3 copper concentrations (head line not shown), biocide concentration 4 of 4, E. coli) was “Tox”. For the same compound, the “CDI (coefficient of drug interaction), gold + biocide” value (“CDI … gold + biocide” for short) (first of 3 gold concentrations, biocide concentration 1 of 4) was 1.08, the “CDI … gold + biocide” value (first of 3 gold concentrations, biocide concentration 2 of 4) was 0.95 and the “CDI … gold + biocide” value (first of 3 gold concentrations, biocide concentration 3 of 4) was 1.13. For the same compound, the “CDI … gold + biocide” value (first of 3 gold concentrations, biocide concentration 4 of 4) was 1.01, the “CDI … gold + biocide” value (second of 3 gold concentrations, biocide concentration 1 of 4) was 1.07 and the “CDI … gold + biocide” value (second of 3 gold concentrations, biocide concentration 2 of 4) was 1.11. For the same compound, the “CDI … gold + biocide” value (second of 3 gold concentrations, biocide concentration 3 of 4) was 1.19, the “CDI … gold + biocide” value (third of 3 gold concentrations, biocide concentration 1 of 4) was 1.00 and the “CDI … gold + biocide” value (third of 3 gold concentrations, biocide concentration 2 of 4) was 1.07. The “CDI … gold + biocide” value (third of 3 gold concentrations, biocide concentration 3 of 4) was 1.39, the “CDI … gold + biocide” value (third of 3 gold concentrations, biocide concentration 4 of 4) was 1.22 and the CDI (Silver 0.5 μM, biocide concentration 1 of 4) was 0.74. It also gave a CDI (Silver 0.5 μM, biocide concentration 2 of 4) of 0.72, a CDI [1] of 0.79 and a CDI [2] of 0.76. The CDI (Silver 1.0 μM, biocide concentration 1 of 4) was 0.95, the CDI (Silver 1.0 μM, biocide concentration 2 of 4) was 0.99 and the CDI [3] was 0.95. The CDI [4] was 1.07, the CDI (Silver 5.0 μM, biocide concentration 1 of 4) was 1.00 and the CDI (Silver 5.0 μM, biocide concentration 2 of 4) was 0.95. The CDI [5] was 1.09 and the CDI [6] was 0.88.

In the case of Nc1n[nH]c(N)n1 [guanazole], the “CDI (coefficient of drug interaction), copper mixed with biocide” value (shortened to “CDI … with biocide”) [7] was “Tox”, the “CDI … with biocide” value [8] was “Tox” and the “CDI … with biocide” value [9] was “Tox”. The “CDI … with biocide” value [10] was “Tox”, the “CDI … with biocide” value [11] was “Tox” and the “CDI … with biocide” value [12] was “Tox”. For the same compound, the “CDI (coefficient of drug interaction)” value (Gold section of Table 5, first of three gold concentrations (μM, value not given), biocide concentration 3 of 4) was “Tox”, the “CDI (coefficient of drug interaction)” value [13] was “Tox” and the “CDI (coefficient of drug interaction)” value (Gold section of Table 5, second of three gold concentrations (μM, value not given), biocide concentration 3 of 4) was “Tox”. The “CDI (coefficient of drug interaction)” value [14] was “Tox”, the “CDI (coefficient of drug interaction)” value (Gold section of Table 5, third of three gold concentrations (μM, value not given), biocide concentration 3 of 4) was “Tox” and the “CDI (coefficient of drug interaction)” value [15] was “Tox”. For the same compound, the CDI [1] was “Tox”, the CDI [2] was “Tox” and the CDI [3] was “Tox”. For the same compound, the CDI [4] was “Tox”, the CDI [5] was “Tox” and the CDI [6] was “Tox”.

In the case of N=C(N)N [guanidine hydrochloride], the “CDI … with biocide” value [8] was “Tox”, the “CDI … with biocide” value [10] was “Tox” and the “CDI … with biocide” value [12] was “Tox”. For the same compound, the “CDI (coefficient of drug interaction)” value [13] was “Tox”, the “CDI (coefficient of drug interaction)” value [14] was “Tox” and the “CDI (coefficient of drug interaction)” value [15] was “Tox”. The “CDI (coefficient of drug interaction), silver + biocide” value (“CDI … silver + biocide” for short) [16] was “Tox”, the “CDI … silver + biocide” value [17] was “Tox” and the “CDI … silver + biocide” value (Silver 5.0 μM, 4th of four biocide concentrations, E. coli) was “Tox”.

For N.N.N.N.N.N.[Cl-].[Cl-].[Cl-].[Co+3] [hexammine cobalt (III) chloride], the “CDI … with biocide” value (1st of 3 copper concentrations (value not shown), 1st of four biocide concentrations) was 1.06, the “CDI … with biocide” value [7] was 1.19 and the “CDI … with biocide” value [8] was 1.51. For the same compound, the “CDI … with biocide” value (2nd of 3 copper concentrations (value not shown), 1st of four biocide concentrations) was 0.93, the “CDI … with biocide” value (2nd of 3 copper concentrations (value not shown), 2nd of four biocide concentrations) was 1.05 and the “CDI … with biocide” value [9] was 1.05. For the same compound, the “CDI … with biocide” value [10] was 1.59, the “CDI … with biocide” value (3rd of 3 copper concentrations (value not shown), 1st of four biocide concentrations) was 0.94 and the “CDI … with biocide” value (3rd of 3 copper concentrations (value not shown), 2nd of four biocide concentrations) was 0.90. For the same compound, the “CDI … with biocide” value [11] was 0.73, the “CDI … with biocide” value [12] was 0.87 and the “CDI (coefficient of drug interaction)” value (Gold 5 μM, biocide concentration 1 of 4, E. coli) was 1.09. For the same compound, the “CDI (coefficient of drug interaction)” value (Gold 5 μM, biocide concentration 4 of 4, E. coli) was 1.10, the “CDI (coefficient of drug interaction)” value (Gold 25 μM, biocide concentration 1 of 4, E. coli) was 1.09 and the “CDI (coefficient of drug interaction)” value (Gold 25 μM, biocide concentration 3 of 4, E. coli) was 1.08. For the same compound, the “CDI (coefficient of drug interaction)” value (Gold 25 μM, biocide concentration 4 of 4, E. coli) was 1.25, the “CDI … silver + biocide” value (Silver 0.5 μM, 1st of four biocide concentrations, E. coli) was 0.98 and the “CDI … silver + biocide” value (Silver 0.5 μM, 2nd of four biocide concentrations, E. coli) was 1.05. For the same compound, the “CDI … silver + biocide” value (Silver 0.5 μM, 3rd of four biocide concentrations, E. coli) was 0.97, the “CDI … silver + biocide” value [16] was 0.82 and the “CDI … silver + biocide” value (Silver 1.0 μM, 1st of four biocide concentrations, E. coli) was 0.98. For the same compound, the “CDI … silver + biocide” value (Silver 1.0 μM, 2nd of four biocide concentrations, E. coli) was 1.03, the “CDI … silver + biocide” value (Silver 1.0 μM, 3rd of four biocide concentrations, E. coli) was 1.04 and the “CDI … silver + biocide” value [17] was 0.39. For the same compound, the “CDI … silver + biocide” value (Silver 5.0 μM, 1st of four biocide concentrations, E. coli) was 1.26, the “CDI … silver + biocide” value (Silver 5.0 μM, 2nd of four biocide concentrations, E. coli) was 1.43 and the “CDI … silver + biocide” value (Silver 5.0 μM, 3rd of four biocide concentrations, E. coli) was 1.00. The “CDI (coefficient of drug interaction)” value ([…], biocide concentration 3 of 4, E. coli) was 1.25 and the “CDI (coefficient of drug interaction)” value ([…], biocide concentration 4 of 4, E. coli) was 1.62.

— patent publication US11382328B2, “Rapid drug discovery methods for pathogen inactivation” (priority 2019, dated 2022)
